Laboratory results published in US6706663B2, “Herbicidal 3-heterocyclic substituted benzisothiazole and benzisoxazole compounds” (Wyeth, priority 2000, dated 2004).

Tests used:
[1] = system: ECHCG (Echinochloa crus-galli); experiment: Postemergence herbicidal evaluation; type: in vivo, (L.) Beau; details: postemergence
Method in brief: (§1)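 Seedlings grown for about two weeks were sprayed postemergence and then kept under standard greenhouse care. Injury was rated visually 4–5 weeks after treatment on a 0–9 scale against untreated controls, and ratings from repeat tests were averaged.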

[2] = system: ABUTH (Abutilon theophrasti); experiment: Preemergence herbicidal evaluation; type: in vivo, Medic.; details: rated 4-5 weeks after treatment
[3] = system: ECHORC (Echinochloa oryzoides); experiment: Flooded paddy, preemergence weed control; type: in vivo, Echinochloa oryzoides (Ard.) Fritsch.; details: rated 3-4 weeks after treatment, 0-9 rating scale
Method in brief: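 Seeds or propagating organs were sown in the top 0.5 cm of silt loam soil, flooded, and the water kept 1.5 to 3 cm above the soil surface throughout. Plants were grown in the greenhouse and rated visually on a 0-9 scale against a control.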

[4] = system: CYPSE (Cyperus serotinus); experiment: Flooded paddy, postemergence weed control; type: in vivo, Rottb.; details: postemergence weeds, rated 3-4 weeks after treatment
Method in brief: (§2)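 Visual 0-9 score (stand, vigor, malformation, size, chlorosis, overall appearance vs untreated control) taken 3-4 wk post-treatment. Weeds 3-5 cm, rice 1.5-2.5 leaf stage, flood 1.5-3 cm; compound into flood water, ~0.0320-0.2500 kg/ha, aqueous/acetone 50/50 v/v.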

[5] = system: GLXMAW (Soybean, Williams); experiment: Preemergence herbicidal evaluation; type: in vivo, Glycine max, (L.) Merr. cv Williams; details: rated 4-5 weeks after treatment
CYPIR (Cyperus iria) = experiment: Flooded paddy, postemergence weed control; type: in vivo; details: 0.1250 kg/ha into flood water; postemergence weeds; rated 3-4 weeks after treatment
Method in brief: as §2

ZEAMX (Corn, Field) [6] = experiment: Postemergence herbicidal evaluation; type: in vivo, Zea mays, L.; details: postemergence
Method in brief: as §1

[7] = system: SAGPY (Sagittaria pygmaea); experiment: Flooded paddy, postemergence weed control; type: in vivo, L.; details: postemergence weeds, rated 3-4 weeks after treatment
Method in brief: as §2

[8] = system: TRZAWR (Wheat, Winter, cv Riband); experiment: Preemergence herbicidal evaluation; type: in vivo, Triticum aestivum; details: rated 4-5 weeks after treatment
Method in brief: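 Greenhouse preemergence test: freshly planted cups were sprayed once with an aqueous acetone solution of compound. Injury was judged visually on a 0–9 scale relative to a control, four to five weeks later.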

ORYSAT (Rice, Tebonnet) [9] = experiment: Flooded paddy, post-transplant and postemergence rice tolerance; type: in vivo, Oryza sativa, (L.) Tebonnet; details: post-transplant rice, rated 3-4 weeks after treatment
Method in brief: as §2

[10] = system: GLXMAW (Soybean, Williams); experiment: Postemergence herbicidal evaluation; type: in vivo, Glycine max, (L.) Merr. cv Williams; details: postemergence
Method in brief: as §1

[11] = system: MOOVA (Monochoria vaginalis); experiment: Flooded paddy, postemergence weed control; type: in vivo, Presl.; details: postemergence weeds, rated 3-4 weeks after treatment
Method in brief: as §2

ZEAMX (Corn, Field) [12] = experiment: Preemergence herbicidal evaluation; type: in vivo, Zea mays, L.; details: rated 4-5 weeks after treatment
[13] = system: ECHORC (Echinochloa oryzoides); experiment: Flooded paddy, postemergence weed control; type: in vivo, Echinochloa oryzoides (Ard.) Fritsch.; details: postemergence weeds, rated 3-4 weeks after treatment
Method in brief: as §2

ORYSAT (Rice, Tebonnet) [14] = experiment: Flooded paddy, post-transplant rice tolerance; type: in vivo, Oryza sativa, (L.) Tebonnet; details: flooded paddy, post-transplant rice, rated 3-4 weeks after treatment, 0-9 rating scale
Method in brief: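 Ten-day-old seedlings, 2/pot, silt loam; flood kept 1.5–3 cm over soil; herbicide applied post-transplant; greenhouse; score 0–9 visual vs control.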

[15] = system: IPOHE (Ipomoea hederacea); experiment: Preemergence herbicidal evaluation; type: in vivo, (L.) Jacq.; details: rated 4-5 weeks after treatment

Cn1c(C(F)(F)F)cc(=O)n(-c2ccc3snc(-c4sccc4Cl)c3c2)c1=O [Compound 52, 3-[3-(3-chloro-2-thienyl)-1,2-benzisothiazol-5-yl]-1-methyl-6-(trifluoromethyl)uracil]
ECHCG herbicidal rating ([1]; rate 0.0320 kg/ha): 0.0 | ECHCG herbicidal rating ([1]; rate 0.0620 kg/ha): 1.0 | ECHCG herbicidal rating ([1]; rate 0.1250 kg/ha): 5.0 | Preemergence herbicidal rating ABUTH ([2]; Rate 0.0620 kg/ha): 9.0 | Preemergence herbicidal rating ABUTH ([2]; Rate 0.1250 kg/ha): 8.5 | Preemergence herbicidal rating ABUTH ([2]; Rate 0.2500 kg/ha): 9.0 | herbicidal rating, ECHORC ([3]; rate 0.0080 kg/ha): 8.5 | herbicidal rating, ECHORC ([3]; rate 0.0320 kg/ha): 9.0 | herbicidal rating, ECHORC ([3]; rate 0.1250 kg/ha): 9.0 | herbicide rating (0-9) CYPSE ([4]; 0.0620 kg/ha into flood water): 7.0 | herbicide rating (0-9) CYPSE ([4]; 0.1250 kg/ha into flood water): 8.0 | Preemergence herbicidal rating GLXMAW ([5]; Rate 0.0620 kg/ha): 1.5 | Preemergence herbicidal rating GLXMAW ([5]; Rate 0.1250 kg/ha): 4.0 | Preemergence herbicidal rating GLXMAW ([5]; Rate 0.2500 kg/ha): 9.0 | herbicide rating (0-9) CYPIR (CYPIR (Cyperus iria)): 9.0 | ZEAMX herbicidal rating (ZEAMX (Corn, Field) [6]; rate 0.0320 kg/ha): 3.5 | ZEAMX herbicidal rating (ZEAMX (Corn, Field) [6]; rate 0.0620 kg/ha): 3.5 | ZEAMX herbicidal rating (ZEAMX (Corn, Field) [6]; rate 0.1250 kg/ha): 5.0 | herbicide rating (0-9) SAGPY ([7]; 0.0320 kg/ha into flood water): 0.0 | herbicide rating (0-9) SAGPY ([7]; 0.0620 kg/ha into flood water): 0.0 | herbicide rating (0-9) SAGPY ([7]; 0.1250 kg/ha into flood water): 4.0 | Preemergence herbicidal rating TRZAWR ([8]; Rate 0.0620 kg/ha): 1.0 | Preemergence herbicidal rating TRZAWR ([8]; Rate 0.1250 kg/ha): 1.0 | Preemergence herbicidal rating TRZAWR ([8]; Rate 0.2500 kg/ha): 3.0 | herbicide rating (0-9) ORYSAT (rice tolerance) (ORYSAT (Rice, Tebonnet) [9]; 0.0320 kg/ha into flood water): 4.0 | herbicide rating (0-9) ORYSAT (rice tolerance) (ORYSAT (Rice, Tebonnet) [9]; 0.0620 kg/ha into flood water): 6.0 | herbicide rating (0-9) ORYSAT (rice tolerance) (ORYSAT (Rice, Tebonnet) [9]; 0.1250 kg/ha into flood water): 7.0 | GLXMAW herbicidal rating ([10]; rate 0.0320 kg/ha): 7.5 | GLXMAW herbicidal rating ([10]; rate 0.0620 kg/ha): 7.0 | GLXMAW herbicidal rating ([10]; rate 0.1250 kg/ha): 8.5 | herbicide rating (0-9) MOOVA ([11]; 0.0320 kg/ha into flood water): 2.0 | herbicide rating (0-9) MOOVA ([11]; 0.0620 kg/ha into flood water): 2.0 | herbicide rating (0-9) MOOVA ([11]; 0.1250 kg/ha into flood water): 9.0 | Preemergence herbicidal rating ZEAMX (ZEAMX (Corn, Field) [12]; Rate 0.0620 kg/ha): 1.5 | Preemergence herbicidal rating ZEAMX (ZEAMX (Corn, Field) [12]; Rate 0.1250 kg/ha): 3.5 | Preemergence herbicidal rating ZEAMX (ZEAMX (Corn, Field) [12]; Rate 0.2500 kg/ha): 7.0 | herbicide rating (0-9) ECHORC ([13]; 0.0320 kg/ha into flood water): 6.0 | herbicide rating (0-9) ECHORC ([13]; 0.0620 kg/ha into flood water): 9.0 | herbicide rating (0-9) ECHORC ([13]; 0.1250 kg/ha into flood water): 8.0 | herbicidal rating, ORYSAT (rice tolerance) (ORYSAT (Rice, Tebonnet) [14]; rate 0.0080 kg/ha): 1.0 | herbicidal rating, ORYSAT (rice tolerance) (ORYSAT (Rice, Tebonnet) [14]; rate 0.0320 kg/ha): 3.7 | herbicidal rating, ORYSAT (rice tolerance) (ORYSAT (Rice, Tebonnet) [14]; rate 0.1250 kg/ha): 5.7 | Preemergence herbicidal rating IPOHE ([15]; Rate 0.0620 kg/ha): 2.0 | Preemergence herbicidal rating IPOHE ([15]; Rate 0.1250 kg/ha): 3.0 | Preemergence herbicidal rating IPOHE ([15]; Rate 0.2500 kg/ha): 6.0
